Laboratory results as given in US20100160228A1, “METHOD FOR INHIBITING OR STIMULATING ANGIOGENESIS IN AN INDIVIDUAL” (VALTION TEKNILLINEN TUTKIMUSKESKUS, priority 2007, published 2010).

Assays:
Assay type in all cases: cell-based, human
HUVEC = experiment: Survival of confluent HUVEC (WST-1); settings: confluent HUVEC on gelatin, WST-1, FIG. 10B
Description: (§1) FIG. 10. […] (A) Serum-starved HUVEC were plated to confluency on gelatin and treated for 1 h with α1 integrin cytoplasmic tail fusion peptide (α1TAT) or TAT-scramble control fusion peptide (ScrTAT) (both at 200 nM) or not treated, followed by VEGF-induction (15 min) when indicated. Cell lysates were immunoblotted for phosphorylated VEGFR2 (or tubulin as a control). (B) Confluent HUVEC on gelatin were treated with VEGF in the presence or absence of α1TAT or ScrTAT peptide and the number of live cells was detected using WST-1 reagent (mean±SD, n=3). (C) α1TAT treatment has no effect on internalization of VEGFR2 in confluent HUVEC. HUVEC were plated to confluency on gelatin, stimulated or not with the TAT peptides (200 nM) and VEGF, and treated with trypsin on ice. Cells were lysed after inactivation of trypsin and the lysates were immunoblotted for detection of VEGFR2 protected from trypsin (=internalized pool). The intensity of VEGFR2 bands was quantitated using densitometry (a representative experiment out of 3 with similar results is shown).
Cell proliferation and survival assays. The number of viable HUVEC was analyzed with WST-1 reagent (Roche). Cell proliferation was measured with BrdU assay (Cell proliferation ELISA Biotrak system, Amersham) from siRNA-transfected HUVEC grown in RPMI1640+1% FBS+2 mM L-glutamine supplemented with 80 ng/ml VEGF.

VEGFR2 [1] = experiment: Immunoblot of phosphorylated VEGFR2 in HUVEC lysates; settings: for effect on VEGFR2 phosphorylation in confluent cells: confluent HUVEC, FIG. 10A; for effect on VEGFR2 phosphorylation in confluent cells / effect of TAT peptides on VEGFR2 phosphorylation: peptide 200 nM
Description: (§2) FIG. 4. α1 integrin activates TCPTP and attenuates VEGFR2 signalling. (A) Serum-starved subconfluent HUVEC were treated for 1 h with α1 integrin cytoplasmic tail fusion peptide (α1TAT) or TAT-scramble control fusion peptide (ScrTAT) (both at 200 nM) followed by VEGF-induction (100 ng/ml, 15 min) where indicated. Cell lysates were resolved on SDS-PAGE and immunoblotted for phosphorylated VEGFR2 (or tubulin as a control). (B) HUVEC were treated as in (A) and VEGFR2 kinase activity (mean±SD, n=3) was measured from the cell lysates. **, p<0.01. (C) Recombinant, purified TCPTP was incubated with α1 or α2 cytoplasmic tail peptides (L-amino acids) or with α1 and scrambled TAT peptides (D-amino acids) and analyzed for phosphatase activity (mean±SD, n=3).
as §1

VEGFR2 [2] = experiment: VEGFR2 kinase activity from HUVEC lysates (Kinase-Glo Plus); settings: FIG. 4B
Description: as §2, with “(A)” for “FIG. 4. α1 integrin activates TCPTP and attenuates VEGFR2 signalling. (A)”
VEGFR2 kinase activity was studied using Kinase-Glo Plus kinase assay kit according to manufacturer's protocol (Promega) with 25 µM ATP. Briefly, HUVEC plated on gelatin were serum-starved overnight, treated with 400 nM α1TAT or ScrTAT or left untreated and stimulated with 100 ng/ml VEGF for 15 min, when indicated. The cells were lysed to ice-cold lysis buffer (1% NP-40, 20 mM Hepes pH 7.4, 150 mM NaCl, 10% glycerol, 2.5 mM EDTA, complete protease inhibitor (Roche) and phosphatase inhibitor coctails I and II (Sigma)). The lysates were incubated in anti-VEGFR2 or control IgG-coated wells with shaking for 2 h and washed 3 times with lysis buffer and 3 times with cold kinase assay buffer (20 mM Hepes pH 8, 0.1 mM Na3VO4, 10 mM MnCl2, 1 mM DTT). Kinase assay was performed for 10 min at +37° C.

VEGFR2 [3] = experiment: VEGFR2 internalization assay in HUVEC (microscopy, cold trypsin protection); settings: for effect on VEGFR2 internalization in confluent cells: confluent HUVEC, peptide 200 nM, FIG. 10C
Description: FIG. 3. TCPTP activity controls VEGF-dependent responses in endothelial cells. (A) HUVEC were transfected with the constitutively active TCPTP (TC37) or vector control (pCG), stimulated or not with VEGF, and stained for VEGFR2 (red) and nuclei (blue) after fixation and permeabilization. Arrows indicate VEGFR2 vesicles. (B) HUVEC were treated as in (A) and subjected to trypsin digestion on ice. VEGFR2 protected from trypsin (=internalized pool) was detected by immunoblotting. The intensities of VEGFR2 bands were quantified and are expressed relative to pCG-VEGF control. A representative experiment out of 2 with similar results is shown. (C) HUVEC were transfected with no oligo, siRNA against TCPTP or a control siRNA, and TCPTP expression was measured using immunoblotting. Cells were treated with 80 ng/ml VEGF and proliferation of sparse cells plated on gelatin was assayed after 16 h using BrdU-based assay (mean±SD; n=4-6; *, p<0.05). (D) HUVEC were transfected as in (A) and chemotaxis towards VEGF was measured using a Transwell assay for 4 hours. Cells adhering to the bottom of the filter were fixed and stained with crystal violet. Number of migrated cells was counted (mean±SEM, n=3).
FIG. 7. TCPTP activation through the cytoplasmic domain of α1 integrin inhibits internalization of VEGFR2. […] VEGFR2 staining in the perinuclear area of cells (mean±SEM, n=30) was analyzed from blinded samples using densitometry and scored from 0 to 4 (0=no staining, 4=highest expression). […] VEGFR2 protected from trypsin (=internalized pool) was detected by immunoblotting. The intensity of VEGFR2 bands was quantified using densitometry and expressed as arbitrary units. […]
FIG. 10. […] (B) Confluent HUVEC on gelatin were treated with VEGF in the presence or absence of α1TAT or ScrTAT peptide and the number of live cells was detected using WST-1 reagent (mean±SD, n=3). […] The intensity of VEGFR2 bands was quantitated using densitometry (a representative experiment out of 3 with similar results is shown).
VEGFR2 internalization assay. […] The amount of VEGFR2 in each sample was analyzed using immunoblotting.

Sequence | effect on survival of HUVEC in confluent cells (HUVEC) | effect on VEGFR2 phosphorylation in confluent cells (VEGFR2 [1]) | VEGF-induced autophosphorylation of VEGFR2 at tyrosine 1214 (VEGFR2 [1]; subconfluent HUVEC, peptide 200 nM 1 h, VEGF 100 ng/ml 15 min, FIG. 4A) | effect of TAT peptides on VEGFR2 phosphorylation (VEGFR2 [1]; subconfluent HUVEC, FIG. 4A) | kinase activity of VEGFR2 in VEGF-treated HUVEC (VEGFR2 [2]; VEGF 100 ng/ml 15 min) | effect on VEGFR2 internalization in confluent cells (VEGFR2 [3]) | internalization of VEGFR2 in HUVEC (VEGFR2 [3]; subconfluent HUVEC, peptide 200 nM 1 h, VEGF 100 ng/ml 15 min, FIG. 7) | increase of VEGFR2 kinase activity upon VEGF-stimulation (VEGFR2 [2]; HUVEC treated with no peptide or with scrambled control TAT peptide)
YGRKKRRQRRRWKLGFFKRPLKKKMEK (SEQ ID NO 3) [α1TAT] | no effects | no effects | markedly inhibited | effectively attenuated | completely abolished | no effects | specifically inhibited | –
YGRKKRRQRRRLKGWRFKLKPKFKEMK (SEQ ID NO 8) [ScrTAT, reference compound] | no effects | no effects | – | induced a clear phosphorylation | – | no effects | – | about 10 fold
